Data: publication PMC9784833, “Mangosteen Metabolites as Promising Alpha-Amylase Inhibitor Candidates: In Silico and In Vitro Evaluations” (Metabolites, 2022)

Each compound was assayed against T1, alpha-amylase (Homo sapiens, UniProt P04746) (assay: In vitro alpha-amylase inhibition assay (EnzChek Ultra-Amylase-Assay Kit)).
T1 sequence (P04746 16-511): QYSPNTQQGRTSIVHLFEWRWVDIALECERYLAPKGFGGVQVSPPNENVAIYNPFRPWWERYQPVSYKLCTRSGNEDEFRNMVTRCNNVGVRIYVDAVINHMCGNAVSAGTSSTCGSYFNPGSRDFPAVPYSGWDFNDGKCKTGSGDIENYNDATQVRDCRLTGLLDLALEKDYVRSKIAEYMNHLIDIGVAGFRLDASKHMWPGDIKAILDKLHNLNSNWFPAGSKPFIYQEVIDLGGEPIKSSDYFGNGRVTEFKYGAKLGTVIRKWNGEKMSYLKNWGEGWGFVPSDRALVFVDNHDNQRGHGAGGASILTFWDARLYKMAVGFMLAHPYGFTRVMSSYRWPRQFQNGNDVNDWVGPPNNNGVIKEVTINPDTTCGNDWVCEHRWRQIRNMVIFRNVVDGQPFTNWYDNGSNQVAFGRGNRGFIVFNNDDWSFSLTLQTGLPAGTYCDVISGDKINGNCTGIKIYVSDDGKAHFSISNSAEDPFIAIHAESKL

| IC50 | SMILES |
| --- | --- |
| 10.4 µM | O=C(c1ccc(O)c(O)c1)c1c(O)cc(O)cc1O[C@@H]1O[C@H](CO)[C@@H](O)[C@H](O)[C@H]1O [Compound 4, Rhodanthenone] |
| 21.9 µM | CC(C)=CCc1c(O)cc2oc3c(/C=C\C(C)(C)O)c(O)c(O)c(CC=C(C)C)c3c(=O)c2c1O [Compound 30, Mangostanaxanthone VI] |
| 7.1 µM | O=C(c1cc(O)c(O)cc1O)c1c(O)cc(O)cc1OC1OC(CO)C(O)C(O)C1O [Compound 8, 6-O-β-D-Glucopyranosyl-2,4,6,3′,4′,6′-hexahydroxybenzophenone] |
| 44.1 µM | COc1c(O)cc2oc3cc(O)c(CC=C(C)C)c(O)c3c(=O)c2c1CC=C(C)C [Compound 13, α-Mangostin] |
| 19.5 µM | CC(C)=CCc1c(O)cc2oc3cc(O)c(O)c(/C=C\C(C)(C)O)c3c(=O)c2c1O [Compound 31, Mangostanaxanthone VII] |
| 18.8 µM | CC(C)=CCc1c(O)cc2oc3c(CC=C(C)C)c(O)c(O)c(CC=C(C)C)c3c(=O)c2c1O [Compound 15, Garcinone E] |
| 15.8 µM | O=C(c1cccc(O)c1)c1c(O)cc(O)cc1O[C@@H]1O[C@H](CO)[C@@H](O)[C@H](O)[C@H]1O [Compound 3, 2,4,3’-Trihydroxy benzophenone-6-O-β-D-glucopyranoside] |
| 28.3 µM | COc1c(O)cc2oc3c(CC=C(C)CCC=C(C)C)c(O)cc(O)c3c(=O)c2c1CC=C(C)CCC=C(C)C [Compound 10, Mangostanaxanthone I] |
| 12.8 µM | COc1ccc(C2Oc3c(c(O)cc(O)c3C3OC(CO)C(O)C(O)C3O)C(=O)C2O)cc1 [Compound 9, 2R,3R-5,7-Dihydroxy-8-C-β-D-glucopyranosyl-4-methoxy-2,3-dihydroflavon-3-ol] |
| 11.1 µM | CC(C)=CCc1c(O)cc2oc3c(O)c(O)c(O)c(CC=C(C)C)c3c(=O)c2c1O [Compound 40, Garcixanthone D] |
| 17.1 µM | CC(C)=CCc1c(O)c(C(=O)CC(C)(C)O)c2oc3c(O)ccc(O)c3c(=O)c2c1O [Compound 39, Garcixanthone C] |
| 8.3 µM | O=C1c2c(O)cc(O)c([C@@H]3O[C@H](CO)[C@@H](O)[C@H](O)[C@H]3O)c2O[C@H](c2ccc(O)cc2)[C@H]1O [Compound 5, Aromadendrin-8-C-glucoside] |
| 21.2 µM | CC(C)=CCc1c(O)c(CC=C(C)C)c2oc3c(O)ccc(O)c3c(=O)c2c1O [Compound 17, Gartanin] |
| 40.6 µM | COc1cc2oc3cc(O)c(OC)c(CC=C(C)C)c3c(=O)c2c(O)c1/C=C\C(C)(C)O [Compound 35, Mangostanaxanthone VIII] |
| 11.9 µM | CC(C)=CCc1c(O)c(O)c(/C=C\C(C)(C)O)c2c(=O)c3c(O)c(/C=C\C(C)(C)O)c(O)cc3oc12 [Compound 29, Mangostanaxanthone V] |
| 20.4 µM | CC(C)=CCc1c(O)cc2oc3c(CC=C(C)C)c(O)c4c(c3c(=O)c2c1O)C=CC(C)(C)O4 [Compound 23, Tovophyllin A] |
| 46.5 µM | COc1c(O)cc2oc3cc(O)c(/C=C\C(C)(C)O)c(O)c3c(=O)c2c1CC=C(C)C [Compound 28, Mangostanaxanthone IV] |
| 8.9 µM | Oc1cc(O)c2c(c1)O[C@H](c1ccc(O)c(O)c1)[C@H](O)C2 [Compound 6, Epicatechin] |
